# Results from the supplement of paper PMC10307832.
# Assays:
# Experiment in all cases: relative viability (nuclei count vs DMSO), 5 days (fraction); higher = more cells survive
# [1] = system: SW 900
# Outline: (§1)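 Lung cancer cell lines, seeded in 1536-well plates, were treated the following day by pin tool with a single drug or with five library-drug doses (not always all listed) in √10 steps on top of a fixed anchor-drug dose. Cells were fixed and nuclei stained in one step after 5 days, and nuclei were counted. Relative viability is the nuclei count for treated wells divided by that for vehicle wells, reported as medians of duplicate plates.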
# [2] = system: EPLC-272H
# Outline: as §1
# [3] = system: UMC-11
# Outline: as §1
# [4] = system: NCI-H2085
# Outline: as §1
# [5] = system: LC-2-ad
# Outline: as §1
# [6] = system: COR-L 105
# Outline: as §1
# [7] = system: SK-LU-1
# Outline: as §1
# [8] = system: NCI-H1915
# Outline: as §1
# [9] = system: HOP-62
# Outline: as §1
# [10] = system: NCI-H1666
# Outline: as §1
# [11] = system: NCI-H1944
# Outline: as §1
# [12] = system: LU99A
# Outline: as §1
# [13] = system: NCI-H2170
# Outline: as §1
# [14] = system: NCI-H358
# Outline: as §1
# [15] = system: HCC-78
# Outline: as §1
# [16] = system: A-427
# Outline: as §1
# [17] = system: NCI-H460
# Outline: as §1
# [18] = system: HCC-366
# Outline: as §1
# [19] = system: NCI-H2009
# Outline: as §1
# [20] = system: LXF-289
# Outline: as §1
# [21] = system: NCI-H1793
# Outline: as §1
structure (smiles),measurement,setting,value
CCN(CC)CCCCNc1ncc2cc(-c3cc(OC)cc(OC)c3)c(NC(=O)NC(C)(C)C)nc2n1 + COc1cc2c(Oc3ccc(NC(=O)C4(C(=O)Nc5ccc(F)cc5)CC4)cc3F)ccnc2cc1OCCCN1CCOCC1 [Foretinib] (partner 0.25 µM),relative viability,[1]; first compound 0.01 µM,0.891
same,relative viability,[1]; first compound 0.03162 µM,0.733
same,relative viability,[1]; first compound 0.3162 µM,0.745
same,relative viability,[1]; first compound 1 µM,0.557
same,relative viability,[2]; first compound 0.01 µM,0.63
same,relative viability,[2]; first compound 0.03162 µM,0.877
same,relative viability,[2]; first compound 0.1 µM,0.693
same,relative viability,[2]; first compound 0.3162 µM,0.741
same,relative viability,[2]; first compound 1 µM,0.644
same,relative viability,[3]; first compound 0.01 µM,0.952
same,relative viability,[3]; first compound 0.03162 µM,1.02
same,relative viability,[3]; first compound 0.1 µM,1.14
same,relative viability,[3]; first compound 0.3162 µM,1.19
same,relative viability,[3]; first compound 1 µM,1.02
same,relative viability,[4]; first compound 0.01 µM,0.968
same,relative viability,[4]; first compound 0.03162 µM,0.821
same,relative viability,[4]; first compound 0.1 µM,1
same,relative viability,[4]; first compound 0.3162 µM,0.897
same,relative viability,[4]; first compound 1 µM,0.866
same,relative viability,[5]; first compound 0.01 µM,1.09
same,relative viability,[5]; first compound 0.03162 µM,0.998
same,relative viability,[5]; first compound 0.1 µM,1.11
same,relative viability,[5]; first compound 0.3162 µM,0.951
same,relative viability,[5]; first compound 1 µM,0.966
same,relative viability,[6]; first compound 0.01 µM,1.27
same,relative viability,[6]; first compound 0.03162 µM,0.994
same,relative viability,[6]; first compound 0.1 µM,1.23
same,relative viability,[6]; first compound 0.3162 µM,0.909
same,relative viability,[6]; first compound 1 µM,1.15
same,relative viability,[7]; first compound 0.01 µM,0.942
same,relative viability,[7]; first compound 0.03162 µM,0.78
same,relative viability,[7]; first compound 0.1 µM,1.12
same,relative viability,[7]; first compound 0.3162 µM,1.07
same,relative viability,[7]; first compound 1 µM,0.662
same,relative viability,[8]; first compound 0.01 µM,1.15
same,relative viability,[8]; first compound 0.03162 µM,1.24
same,relative viability,[8]; first compound 0.1 µM,1.13
same,relative viability,[8]; first compound 0.3162 µM,1.27
same,relative viability,[8]; first compound 1 µM,1.15
same,relative viability,[9]; first compound 0.01 µM,1.15
same,relative viability,[9]; first compound 0.03162 µM,1.13
same,relative viability,[9]; first compound 0.1 µM,1.24
same,relative viability,[9]; first compound 0.3162 µM,1.16
same,relative viability,[9]; first compound 1 µM,1.12
same,relative viability,[10]; first compound 0.01 µM,0.936
same,relative viability,[10]; first compound 0.03162 µM,0.979
same,relative viability,[10]; first compound 0.1 µM,0.977
same,relative viability,[10]; first compound 0.3162 µM,0.892
same,relative viability,[10]; first compound 1 µM,0.919
same,relative viability,[11]; first compound 0.01 µM,0.848
same,relative viability,[11]; first compound 0.03162 µM,0.873
same,relative viability,[11]; first compound 0.1 µM,0.844
same,relative viability,[11]; first compound 0.3162 µM,0.946
same,relative viability,[11]; first compound 1 µM,0.771
same,relative viability,[12]; first compound 0.01 µM,0.828
same,relative viability,[12]; first compound 0.03162 µM,0.888
same,relative viability,[12]; first compound 0.1 µM,0.91
same,relative viability,[12]; first compound 0.3162 µM,0.867
same,relative viability,[12]; first compound 1 µM,0.782
same,relative viability,[13]; first compound 0.01 µM,0.929
same,relative viability,[13]; first compound 0.03162 µM,1.05
same,relative viability,[13]; first compound 0.1 µM,0.961
same,relative viability,[13]; first compound 0.3162 µM,1.08
same,relative viability,[13]; first compound 1 µM,0.999
same,relative viability,[14]; first compound 0.01 µM,0.71
same,relative viability,[14]; first compound 0.03162 µM,0.638
same,relative viability,[14]; first compound 0.1 µM,0.679
same,relative viability,[14]; first compound 0.3162 µM,0.815
same,relative viability,[14]; first compound 1 µM,0.625
same,relative viability,[15]; first compound 0.01 µM,0.583
same,relative viability,[15]; first compound 0.03162 µM,0.53
same,relative viability,[15]; first compound 0.1 µM,0.586
same,relative viability,[15]; first compound 0.3162 µM,0.55
same,relative viability,[15]; first compound 1 µM,0.56
same,relative viability,[16]; first compound 0.01 µM,1.18
same,relative viability,[16]; first compound 0.03162 µM,1.11
same,relative viability,[16]; first compound 0.1 µM,1.18
same,relative viability,[16]; first compound 0.3162 µM,1.1
same,relative viability,[16]; first compound 1 µM,0.99
same,relative viability,[17]; first compound 0.01 µM,0.972
same,relative viability,[17]; first compound 0.03162 µM,1.13
same,relative viability,[17]; first compound 0.1 µM,1.03
same,relative viability,[17]; first compound 0.3162 µM,1.04
same,relative viability,[17]; first compound 1 µM,1.18
same,relative viability,[18]; first compound 0.01 µM,0.951
same,relative viability,[18]; first compound 0.03162 µM,0.941
same,relative viability,[18]; first compound 0.1 µM,1.05
same,relative viability,[18]; first compound 0.3162 µM,0.981
same,relative viability,[18]; first compound 1 µM,0.999
same,relative viability,[19]; first compound 0.01 µM,1.33
same,relative viability,[19]; first compound 0.03162 µM,1.25
same,relative viability,[19]; first compound 0.1 µM,1.22
same,relative viability,[19]; first compound 0.3162 µM,1.29
same,relative viability,[19]; first compound 1 µM,1.18
same,relative viability,[20]; first compound 0.01 µM,0.979
same,relative viability,[20]; first compound 0.03162 µM,0.989
same,relative viability,[20]; first compound 0.1 µM,1.02
same,relative viability,[20]; first compound 0.3162 µM,0.975
same,relative viability,[20]; first compound 1 µM,0.851
same,relative viability,[21]; first compound 0.01 µM,0.734
same,relative viability,[21]; first compound 0.03162 µM,0.759
same,relative viability,[21]; first compound 0.1 µM,0.716
same,relative viability,[21]; first compound 0.3162 µM,0.676
same,relative viability,[21]; first compound 1 µM,0.403
